Laboratory results published in patent US20080227798A1, “POLYMORPHS OF SUCCINATE SALT OF 2-[6-(3-AMINO-PIPERIDIN-1-YL)-3-METHYL-2,4-DIOXO-3,4-DIHYDRO-2H-PYRIMIDIN-1-YLMETHY]-4-FLUOR-BENZONITRILE AND METHODS OF USE THEREFOR” (priority 2006, published 2008).
Entries after “also recorded” stand apart in the source; their conditions may differ.

Key:
Assay type in all cases: physicochemical
[1] = Slurry interconversion studies
Excerpt: An excess amount of Compound I was slurried in test solvent on a rotating wheel for approximately 5 or 7 days. The solids were typically collected by vacuum filtration, air dried in the hood, and analyzed by XRPD for form identification.
Samples of mixture of Form A and Form B of Compound I were slurried in water and THF:water (9:1), for up to 13 days.

[2] = Moisture sorption/desorption analysis
Method: Moisture sorption/desorption data were collected on a VTI SGA-100 Vapor Sorption Analyzer. Sorption and desorption data were collected over a range of 5% to 95% relative humidity (RH) at 10% RH intervals under a nitrogen purge. Samples were not dried prior to analysis. Equilibrium criteria used for analysis were less than 0.0100% weight change in 5 minutes, with a maximum equilibration time of 3 hours if the weight criterion was not met. Data were not corrected for the initial moisture content of the samples. NaCl and PVP were used as calibration standards. Moisture sorption and desorption study was conducted on a sample of Form A+B. The sample was prepared by crashed cooling crystallization (Example 3, section A.6) of the polymorphic forms from a ethanol:water (95:5) solution of Compound I. The moisture sorption and desorption study was conducted according to the procedures outlined in Example 3, section B.10. The data collected is plotted in FIG. 13 and summarized in Table L. Moisture sorption and desorption study was conducted on a sample of Form E. The sample was prepared by solvent/antisolvent crystallization (Example 3, section A.7) by the addition of acetonitrile to Compound I in water. The moisture sorption and desorption study was conducted according to the procedures outlined in Example 3, section B.10. The data collected is plotted in FIG. 23 and summarized in Table M. Moisture sorption and desorption study was conducted on a sample of Amorphous Form. The sample was prepared by lyophilolization of a solution of Compound I in water (Example 3, section A.9). The moisture sorption and desorption study was conducted according to the procedures outlined in Example 3, section B.10.

[3] = Thermogravimetric-infrared (TG-IR) analysis
Excerpt: Thermogravimetric infrared (TG-IR) analyses were acquired on a TA Instruments thermogravimetric (TG) analyzer model 2050 interfaced to a Magna 560® Fourier transform infrared (FT-IR) spectrophotometer (Thermo Nicolet) equipped with an Ever-Glo mid/far IR source, a potassium bromide (KBr) beamsplitter, and a deuterated triglycine sulfate (DTGS) detector. The TG instrument was operated under a flow of helium at 90 and 10 cc/min for the purge and balance, respectively. Each sample was placed in a platinum sample pan, inserted into the TG furnace, accurately weighed by the instrument, and the furnace was heated from ambient temperature to 250° C. at a rate of 20° C./min. The TG instrument was started first, immediately followed by the FT-IR instrument. Each IR spectrum represents 32 co-added scans collected at a spectral resolution of 4 cm^−1. A background scan was collected before the beginning of the experiment. Wavelength calibration was performed using polystyrene. The TG calibration standards were nickel and Alumel™. Volatiles were identified from a search of the High Resolution Nicolet TGA Vapor Phase spectral library.

[4] = Relative humidity stressing experiments
Excerpt: Samples of Compound I were placed uncovered in approximately 58%, 88%, and 97% relative humidity jars. The samples were stored in the jars for approximately 8 days. The solids were collected and analyzed by XRPD for form identification. […] An aliquot of a mixture of Form A+B was stressed at 88% relative humidity for 23 days. Amorphous Form was stressed at 58% and 88% relative humidity for 23 days.

Dehydration experiment = test: Dehydration experiment
Excerpt: Hydrated samples of Compound I were dehydrated at ambient conditions (2 days) and in an ambient temperature vacuum oven (1 day). The solids were collected and analyzed by XRPD for form identification.
Aliquots of Form A+B of Compound I were stored at ambient condition for two days and in an ambient temperature vacuum over for one day. The solids were collected and analyzed by XRPD and confirmed to be Form A.

[5] = Thermogravimetric analysis (TGA)
Method: Thermogravimetric (TG) analyses were performed using a TA Instruments 2950 thermogravimetric analyzer. Each sample was placed in an aluminum sample pan and inserted into the TG furnace. The furnace was first equilibrated at 25° C., then heated under nitrogen at a rate of 10° C./min, up to a final temperature of 350° C. Nickel and Alumel™ were used as the calibration standards.

With Cn1c(=O)cc(N2CCC[C@@H](N)C2)n(Cc2cc(F)ccc2C#N)c1=O.O=C(O)CCC(=O)O [A + B] the “Final Form after slurry (XRPD)” value ([1]; THF:H2O 9:1, 13 days (approximate)) was “A + B”.
With Cn1c(=O)cc(N2CCC[C@@H](N)C2)n(Cc2cc(F)ccc2C#N)c1=O.O=C(O)CCC(=O)O [Form A+B] the “form by XRPD after slurry” value ([1]; slurried in water and THF:water (9:1), up to 13 days) was “either Form A or Form A+B”, the form after slurry ([1]; slurried in water, water removed by evaporation) was “converted to Form A” and the “reversible weight change on sorption/desorption” value [2] was 1.2%. For the same molecule, the “weight gain on sorption” value ([2]; 5-95% RH) was 1.2% weight gain from 5-95% RH, the “weight lost on desorption” value ([2]; 95-5% RH) was 1.2% weight lost from 95-5% RH and the Weight % chg ([2]; Samp RH 4.83%, 25.10° C., elapsed 445.9 min (desorption)) was −0.658%. For the same molecule, the Weight % chg ([2]; Samp RH 5.14%, 25.05° C., elapsed 91.5 min) was −0.665%, the Weight % chg ([2]; Samp RH 14.88%, 25.04° C., elapsed 137.8 min (sorption)) was −0.184% and the Weight % chg ([2]; Samp RH 14.96%, 25.09° C., elapsed 359.7 min (desorption)) was 0.020%. It also gave a Weight % chg ([2]; Samp RH 25.03%, 25.07° C., elapsed 165.5 min (sorption)) of 0.004%, a Weight % chg ([2]; Samp RH 25.11%, 25.09° C., elapsed 338.5 min (desorption)) of 0.149% and a Weight % chg ([2]; Samp RH 34.82%, 25.06° C., elapsed 179.7 min (sorption)) of 0.098%. It also gave a Weight % chg ([2]; Samp RH 34.92%, 25.06° C., elapsed 319.3 min (desorption)) of 0.237%, a Weight % chg ([2]; Samp RH 44.88%, 25.06° C., elapsed 196.2 min (sorption)) of 0.208% and a Weight % chg ([2]; Samp RH 45.07%, 25.07° C., elapsed 307.3 min (desorption)) of 0.299%. For the same molecule, the Weight % chg ([2]; Samp RH 54.95%, 25.06° C., elapsed 208.7 min (sorption)) was 0.284%, the Weight % chg ([2]; Samp RH 55.02%, 25.07° C., elapsed 296.5 min (desorption)) was 0.353% and the Weight % chg ([2]; Samp RH 62.77%, 25.03° C., elapsed 0.1 min (start)) was 0.000%. The Weight % chg ([2]; Samp RH 64.94%, 25.04° C., elapsed 285.2 min (desorption)) was 0.406%, the Weight % chg ([2]; Samp RH 65.00%, 25.08° C., elapsed 219.7 min (sorption)) was 0.347% and the Weight % chg ([2]; Samp RH 75.01%, 25.05° C., elapsed 231.9 min (sorption)) was 0.406%. For the same molecule, the Weight % chg ([2]; Samp RH 75.35%, 25.08° C., elapsed 274.2 min (desorption)) was 0.456%, the Weight % chg ([2]; Samp RH 84.92%, 25.09° C., elapsed 243.8 min (sorption)) was 0.466% and the Weight % chg ([2]; Samp RH 85.01%, 25.08° C., elapsed 265.2 min (desorption)) was 0.510%. For the same molecule, the Weight % chg ([2]; Samp RH 94.67%, 25.08° C., elapsed 256.6 min (sorption)) was 0.563%, the “water content consistent with weight loss” value ([3]; from 2.4% weight loss) was 0.5 to 1.0 moles of water and the “form by XRPD after relative humidity stressing” value ([4]; 58% relative humidity, 23 days) was “Form A”. The “form by XRPD after relative humidity stressing” value ([4]; 88% relative humidity, 23 days) was “Form A”, the “form by XRPD after dehydration” value (Dehydration experiment; ambient conditions, two days) was “converted to Form A” and the “form by XRPD after dehydration” value (Dehydration experiment; vacuum oven at ambient temperature, one day) was “converted to Form A”.
In the case of Cn1c(=O)cc(N2CCC[C@@H](N)C2)n(Cc2ccccc2C#N)c1=O.O=C(O)CCC(=O)O [Form A], the TGA weight loss ([5]; heated from 25° C. to 165° C.) is reported as “insignificant weight loss”, the “stability at ambient conditions” value ([4]; ambient conditions, conclusion from characterization data) is reported as “stable” and the “form by XRPD after relative humidity stressing” value ([4]; approximately 50% relative humidity, 29 days) is reported as “Form A”. The “form by XRPD after relative humidity stressing” value ([4]; approximately 58% relative humidity, 29 days) was “did not exhibit form changes” and the “form by XRPD after relative humidity stressing” value ([4]; approximately 97% relative humidity, 29 days) was “did not exhibit form changes; also recorded: Form A”.
For Cn1c(=O)cc(N2CCC[C@@H](N)C2)n(Cc2cc(F)ccc2C#N)c1=O.O=C(O)CCC(=O)O [Form D], the “TGA total weight loss” value ([5]; equilibration plus 25° C. to 85° C.) was “approximately 30%”, the “water content consistent with total weight loss” value ([5]; from about 30% total weight loss) was “approximately 11 moles of water” and the TG-IR weight loss ([3]; heated from 20° C. to 100° C., evaporation of water) was 24.0% weight loss when heated from.
